# Experimental data as given in PubChem BioAssay AID1963966 (Molecular Pharmacology Branch, DTP, NCI, 2024).
# pIC50: −log10 of the molar value.
# System: 935938-334-R-J1-PDC spheroids with HUVEC/MSC, viability
# Assay: Anticancer human tumor 935938-334-R-J1-PDC patient-derived small intestine adenocarcinoma cell line growth inhibition [PI3K]
# Settings: for pIC50: curve of first compound; for viability, T/C: stronger effect = lower value
# In short: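 Tumor cells were combined with HUVEC and MSCs into spheroids, then dosed with PI3K-inhibitor combinations over half-log ranges capped near clinical Cmax or 10 microM.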
# [1] = second compound 0.0316 µM, first compound 0.0316 µM
# [2] = second compound 0.0316 µM, first compound 0.1 µM
# [3] = second compound 0.0316 µM, first compound 0.316 µM
# [4] = second compound 0.0316 µM, first compound 1 µM
# [5] = second compound 0.0316 µM, first compound 3.16 µM
# [6] = second compound 0.0316 µM, first compound 10 µM
# [7] = second compound 0.1 µM, first compound 0.0316 µM
# [8] = second compound 0.1 µM, first compound 0.1 µM
# [9] = second compound 0.1 µM, first compound 0.316 µM
# [10] = second compound 0.1 µM, first compound 1 µM
# [11] = second compound 0.1 µM, first compound 3.16 µM
# [12] = second compound 0.1 µM, first compound 10 µM
# [13] = second compound 0.316 µM, first compound 0.0316 µM
# [14] = second compound 0.316 µM, first compound 0.1 µM
# [15] = second compound 0.316 µM, first compound 0.316 µM
# [16] = second compound 0.316 µM, first compound 1 µM
# [17] = second compound 0.316 µM, first compound 3.16 µM
# [18] = second compound 0.316 µM, first compound 10 µM
# [19] = second compound 1 µM, first compound 0.0316 µM
# [20] = second compound 1 µM, first compound 0.1 µM
# [21] = second compound 1 µM, first compound 0.316 µM
# [22] = second compound 1 µM, first compound 1 µM
# [23] = second compound 1 µM, first compound 3.16 µM
# [24] = second compound 1 µM, first compound 10 µM
# 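Also: compound exposure lasted seven days before viability was read.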
# 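For viability, T/C in this document: percent of vehicle DMSO treated spheroid viability so 100% = untreated.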
smiles,measurement,setting,value
CC(C)NCC(C(=O)N1CCN(c2ncnc3c2C(C)CC3O)CC1)c1ccc(Cl)cc1 (centres undefined) + CC(Nc1ncnc2nc[nH]c12)c1cc2cccc(Cl)c2c(=O)n1-c1ccccc1,pIC50,second compound 0.0316 µM,5.14
same,pIC50,second compound 0.1 µM,5.47
same,pIC50,second compound 0.316 µM,5.19
same,pIC50,second compound 1 µM,5.75
same,pIC50,second compound 3.16 µM,5.59
same,pIC50,second compound 10 µM,5.72
same,"viability, T/C",[1],75.5%
same,"viability, T/C",[2],80%
same,"viability, T/C",[3],72.4%
same,"viability, T/C",[4],64%
same,"viability, T/C",[5],78.6%
same,"viability, T/C",[6],40.6%
same,"viability, T/C",[7],91.7%
same,"viability, T/C",[8],69.4%
same,"viability, T/C",[9],79.6%
same,"viability, T/C",[10],60.5%
same,"viability, T/C",[11],55.1%
same,"viability, T/C",[12],34.1%
same,"viability, T/C",[13],93.1%
same,"viability, T/C",[14],93%
same,"viability, T/C",[15],60.6%
same,"viability, T/C",[16],58%
same,"viability, T/C",[17],65.8%
same,"viability, T/C",[18],42.3%
same,"viability, T/C",[19],100%
same,"viability, T/C",[20],87.3%
same,"viability, T/C",[21],59.5%
same,"viability, T/C",[22],67.2%
same,"viability, T/C",[23],40.5%
same,"viability, T/C",[24],31.4%
same,"viability, T/C","second compound 3.16 µM, first compound 0.0316 µM",64.6%
same,"viability, T/C","second compound 3.16 µM, first compound 0.1 µM",78.1%
same,"viability, T/C","second compound 3.16 µM, first compound 0.316 µM",70%
same,"viability, T/C","second compound 3.16 µM, first compound 1 µM",64.1%
same,"viability, T/C","second compound 3.16 µM, first compound 3.16 µM",44.1%
same,"viability, T/C","second compound 3.16 µM, first compound 10 µM",49.6%
same,"viability, T/C","second compound 10 µM, first compound 0.0316 µM",69.5%
same,"viability, T/C","second compound 10 µM, first compound 0.1 µM",59.8%
same,"viability, T/C","second compound 10 µM, first compound 0.316 µM",65.5%
same,"viability, T/C","second compound 10 µM, first compound 1 µM",62%
same,"viability, T/C","second compound 10 µM, first compound 3.16 µM",40.1%
same,"viability, T/C","second compound 10 µM, first compound 10 µM",40.8%
CNC(=O)c1ccc(N2C(=S)N(c3ccc(C#N)c(C(F)(F)F)c3)C(=O)C2(C)C)cc1F + CC(Nc1ccc2c(c1)OCCn1cc(N3C(=O)OCC3C(F)F)nc1-2)C(N)=O,pIC50,second compound 0.00316 µM,< 5.00
same,pIC50,second compound 0.01 µM,< 5.00
same,pIC50,second compound 0.0316 µM,< 5.00
same,pIC50,second compound 0.1 µM,< 5.00
same,pIC50,second compound 0.316 µM,< 5.00
same,pIC50,second compound 1 µM,5.50
same,"viability, T/C","second compound 0.00316 µM, first compound 0.0316 µM",99.4%
same,"viability, T/C","second compound 0.00316 µM, first compound 0.1 µM",108%
same,"viability, T/C","second compound 0.00316 µM, first compound 0.316 µM",99.5%
same,"viability, T/C","second compound 0.00316 µM, first compound 1 µM",102%
same,"viability, T/C","second compound 0.00316 µM, first compound 3.16 µM",97.1%
same,"viability, T/C","second compound 0.00316 µM, first compound 10 µM",86%
same,"viability, T/C","second compound 0.01 µM, first compound 0.0316 µM",99.9%
same,"viability, T/C","second compound 0.01 µM, first compound 0.1 µM",89.9%
same,"viability, T/C","second compound 0.01 µM, first compound 0.316 µM",108%
same,"viability, T/C","second compound 0.01 µM, first compound 1 µM",78.3%
same,"viability, T/C","second compound 0.01 µM, first compound 3.16 µM",102%
same,"viability, T/C","second compound 0.01 µM, first compound 10 µM",97.6%
same,"viability, T/C",[1],102%
same,"viability, T/C",[2],95.6%
same,"viability, T/C",[3],90.7%
same,"viability, T/C",[4],110%
same,"viability, T/C",[5],97.8%
same,"viability, T/C",[6],86.3%
same,"viability, T/C",[7],80.4%
same,"viability, T/C",[8],99.4%
same,"viability, T/C",[9],90.3%
same,"viability, T/C",[10],93.8%
same,"viability, T/C",[11],79.2%
same,"viability, T/C",[12],105%
same,"viability, T/C",[13],86.9%
same,"viability, T/C",[14],72.7%
same,"viability, T/C",[15],73.7%
same,"viability, T/C",[16],83.1%
same,"viability, T/C",[17],82.4%
same,"viability, T/C",[18],64.7%
same,"viability, T/C",[19],61.6%
same,"viability, T/C",[20],66.5%
same,"viability, T/C",[21],72.7%
same,"viability, T/C",[22],43.7%
same,"viability, T/C",[23],61.5%
same,"viability, T/C",[24],53.3%
